Assays:
[1] = biological target: T1, Amine oxidase [flavin-containing] A (Homo sapiens, UniProt P21397); type: functional
T1 sequence (P21397 whole entry): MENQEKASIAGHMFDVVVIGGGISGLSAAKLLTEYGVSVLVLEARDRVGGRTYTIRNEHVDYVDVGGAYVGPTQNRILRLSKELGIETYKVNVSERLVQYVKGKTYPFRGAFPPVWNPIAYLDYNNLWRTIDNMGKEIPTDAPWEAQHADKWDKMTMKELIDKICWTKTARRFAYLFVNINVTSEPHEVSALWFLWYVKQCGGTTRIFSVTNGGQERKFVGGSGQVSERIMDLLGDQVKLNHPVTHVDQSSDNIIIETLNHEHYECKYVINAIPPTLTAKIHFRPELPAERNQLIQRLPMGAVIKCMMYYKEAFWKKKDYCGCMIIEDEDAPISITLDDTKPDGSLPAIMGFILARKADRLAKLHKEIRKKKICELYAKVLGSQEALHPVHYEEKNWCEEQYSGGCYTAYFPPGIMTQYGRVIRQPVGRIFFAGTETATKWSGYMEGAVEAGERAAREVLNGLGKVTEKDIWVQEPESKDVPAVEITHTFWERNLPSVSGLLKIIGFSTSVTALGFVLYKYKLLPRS

[2] = biological target: T2, Adenosine receptor A3 (Homo sapiens, UniProt P0DMS8)
T2 sequence (P0DMS8 whole entry): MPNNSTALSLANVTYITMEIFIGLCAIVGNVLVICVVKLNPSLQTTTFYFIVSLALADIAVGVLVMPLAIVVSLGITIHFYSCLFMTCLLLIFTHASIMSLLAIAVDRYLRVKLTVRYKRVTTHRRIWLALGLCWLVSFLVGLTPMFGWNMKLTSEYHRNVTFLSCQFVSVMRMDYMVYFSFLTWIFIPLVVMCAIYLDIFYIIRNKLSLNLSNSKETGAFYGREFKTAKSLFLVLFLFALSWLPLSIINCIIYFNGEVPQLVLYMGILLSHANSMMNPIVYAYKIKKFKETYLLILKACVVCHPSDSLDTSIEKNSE

[3] = biological target: T3, Alpha-1A adrenergic receptor (Homo sapiens, UniProt P35348); type: functional, cell-based
T3 sequence (P35348 whole entry): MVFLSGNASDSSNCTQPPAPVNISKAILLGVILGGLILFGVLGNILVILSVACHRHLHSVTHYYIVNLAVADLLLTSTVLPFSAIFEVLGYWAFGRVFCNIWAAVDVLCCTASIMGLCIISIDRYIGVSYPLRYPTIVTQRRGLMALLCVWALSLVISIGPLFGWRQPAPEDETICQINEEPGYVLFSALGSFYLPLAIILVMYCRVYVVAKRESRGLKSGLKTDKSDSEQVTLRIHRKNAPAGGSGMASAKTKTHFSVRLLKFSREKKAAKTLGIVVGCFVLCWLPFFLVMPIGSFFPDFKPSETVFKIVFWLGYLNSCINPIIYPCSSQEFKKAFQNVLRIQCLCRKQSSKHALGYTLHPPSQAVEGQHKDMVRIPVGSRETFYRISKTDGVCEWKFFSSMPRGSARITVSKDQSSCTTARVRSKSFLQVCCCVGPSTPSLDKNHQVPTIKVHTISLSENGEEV

[4] = biological target: Prothrombin (Homo sapiens, UniProt P00734); type: functional
[5] = biological target: Mu-type opioid receptor (Homo sapiens, UniProt P35372)
[6] = biological target: Sodium-dependent noradrenaline transporter (Homo sapiens, UniProt P23975)
[7] = biological target: T4, Glucocorticoid receptor (Homo sapiens, UniProt P04150)
T4 sequence (P04150 whole entry): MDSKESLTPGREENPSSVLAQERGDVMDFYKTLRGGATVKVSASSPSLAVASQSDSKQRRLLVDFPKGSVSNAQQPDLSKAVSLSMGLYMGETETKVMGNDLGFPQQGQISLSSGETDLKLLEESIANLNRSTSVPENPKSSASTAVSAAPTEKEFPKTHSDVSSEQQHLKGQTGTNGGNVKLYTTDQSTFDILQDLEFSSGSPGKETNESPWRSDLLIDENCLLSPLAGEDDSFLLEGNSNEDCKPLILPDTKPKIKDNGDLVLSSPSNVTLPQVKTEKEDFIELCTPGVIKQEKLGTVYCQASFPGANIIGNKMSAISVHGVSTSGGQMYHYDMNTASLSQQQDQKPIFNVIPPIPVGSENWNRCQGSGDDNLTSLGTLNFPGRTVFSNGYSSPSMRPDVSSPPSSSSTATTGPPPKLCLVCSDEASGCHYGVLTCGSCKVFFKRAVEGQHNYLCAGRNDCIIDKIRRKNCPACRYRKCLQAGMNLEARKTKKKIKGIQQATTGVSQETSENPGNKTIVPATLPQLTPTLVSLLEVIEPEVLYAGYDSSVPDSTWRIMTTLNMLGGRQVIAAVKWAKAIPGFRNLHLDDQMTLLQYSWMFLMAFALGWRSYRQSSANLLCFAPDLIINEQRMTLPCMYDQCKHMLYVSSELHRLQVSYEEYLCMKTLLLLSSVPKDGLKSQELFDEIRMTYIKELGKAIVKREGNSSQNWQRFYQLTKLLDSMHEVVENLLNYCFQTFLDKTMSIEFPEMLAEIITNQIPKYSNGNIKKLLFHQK
Note: assay procedure not described here.

Sequence of Sodium-dependent noradrenaline transporter (P23975 whole entry): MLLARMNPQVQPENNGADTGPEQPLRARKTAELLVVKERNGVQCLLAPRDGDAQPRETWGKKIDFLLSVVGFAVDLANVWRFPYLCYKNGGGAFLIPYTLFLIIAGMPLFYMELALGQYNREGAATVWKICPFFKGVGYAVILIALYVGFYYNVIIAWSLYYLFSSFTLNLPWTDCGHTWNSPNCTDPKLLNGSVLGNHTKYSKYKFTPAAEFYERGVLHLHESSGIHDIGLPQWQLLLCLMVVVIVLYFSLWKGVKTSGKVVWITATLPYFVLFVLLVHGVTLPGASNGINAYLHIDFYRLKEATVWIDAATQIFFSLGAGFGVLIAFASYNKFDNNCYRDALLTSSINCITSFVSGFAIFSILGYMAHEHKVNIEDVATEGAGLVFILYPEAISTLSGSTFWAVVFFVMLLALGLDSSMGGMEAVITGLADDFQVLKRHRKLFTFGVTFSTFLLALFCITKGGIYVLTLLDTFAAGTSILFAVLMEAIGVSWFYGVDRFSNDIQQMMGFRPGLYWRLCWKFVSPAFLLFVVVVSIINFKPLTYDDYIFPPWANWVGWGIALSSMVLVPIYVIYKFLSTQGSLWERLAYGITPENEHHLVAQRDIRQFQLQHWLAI
Sequence of Mu-type opioid receptor (P35372 whole entry): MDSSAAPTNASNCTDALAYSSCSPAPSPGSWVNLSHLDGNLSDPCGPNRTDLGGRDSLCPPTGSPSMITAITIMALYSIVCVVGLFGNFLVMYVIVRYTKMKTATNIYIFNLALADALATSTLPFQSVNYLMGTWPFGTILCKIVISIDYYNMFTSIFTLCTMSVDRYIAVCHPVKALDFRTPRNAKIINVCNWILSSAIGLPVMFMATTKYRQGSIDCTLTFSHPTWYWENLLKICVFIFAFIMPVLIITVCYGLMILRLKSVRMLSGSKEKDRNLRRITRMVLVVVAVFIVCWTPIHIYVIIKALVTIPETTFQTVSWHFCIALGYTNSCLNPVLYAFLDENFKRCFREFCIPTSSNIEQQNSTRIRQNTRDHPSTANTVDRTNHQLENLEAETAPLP

Row | Compound | AC50 [1] [µM] | AC50 [2] [µM] | AC50 [3] [µM] | AC50 [4] [µM] | AC50 [5] [µM] | AC50 [6] [µM] | AC50 [7] [µM]
1 | CC(C)N(CCNC(=O)CN1CCCC1=O)C(C)C | > 30 | > 30 | > 30 | > 30 | > 30 | > 30 | –
2 | Cc1cc(N)c2ccccc2[n+]1CCCCCCCCCC[n+]1c(C)cc(N)c2ccccc21 | 16.8 | 8.73 | 23.9 | 28.8 | 0.684 | 1.47 | –
3 | CCOC(=O)[C@H](CCc1ccccc1)N[C@@H](C)C(=O)N(CC(=O)O)C1Cc2ccccc2C1 | > 30 | > 30 | > 30 | > 30 | > 30 | > 30 | –
4 | C=CCSCC1Nc2cc(Cl)c(S(N)(=O)=O)cc2S(=O)(=O)N1 (stereo not drawn) [ALTHIAZIDE] | > 30 | > 30 | > 30 | > 30 | > 30 | > 30 | –
5 | CCN(CCCc1ccccc1)CCCc1ccccc1 [ALVERINE] | > 30 | > 30 | > 30 | > 30 | 2 | 1.15 | –
6 | COc1cc(N2CCC(N3CCN(C)CC3)CC2)ccc1Nc1ncc(Cl)c(Nc2ccccc2P(C)(C)=O)n1 [BRIGATINIB] | > 30 | > 30 | > 30 | > 30 | > 30 | > 30 | –
7 | CN(C)CCOC(c1ccccc1)c1ccc(Br)cc1 (stereo not drawn) [BROMODIPHENHYDRAMINE] | > 30 | > 30 | > 30 | > 30 | 17.9 | 4.22 | –
8 | CC(=O)O[C@]1(C(C)=O)CC[C@H]2[C@@H]3C=C(Cl)C4=CC(=O)CC[C@]4(C)[C@H]3CC[C@@]21C [CHLORMADINONE ACETATE] | > 30 | 21 | > 30 | > 30 | > 30 | > 30 | –
9 | NC(=O)OCC(O)COc1ccc(Cl)cc1 (stereo not drawn) [CHLORPHENESIN CARBAMATE] | > 30 | > 30 | > 30 | > 30 | > 30 | > 30 | –
10 | O=C(O)c1cn(C2CC2)c2cc(N3CCNCC3)c(F)cc2c1=O [CIPROFLOXACIN] | – | – | – | > 30 | – | – | > 30
11 | Cc1ccccc1N1CCN(CCc2nnc3n2CCCC3)CC1 [DAPIPRAZOLE] | > 30 | > 30 | – | > 30 | > 30 | > 30 | –
12 | CCN(CC)C(=S)S [DITIOCARB] | > 30 | – | > 30 | > 30 | > 30 | > 30 | –
13 | C=C1CC[C@H](O)C/C1=C/C=C1\CCC[C@]2(C)[C@@H]([C@H](C)/C=C/[C@H](C)C(C)C)CC[C@@H]12 [ERGOCALCIFEROL] | > 30 | – | – | > 30 | > 30 | > 30 | –
14 | CCC(=O)O[C@]1(C(=O)SCF)[C@H](C)C[C@H]2[C@@H]3C[C@H](F)C4=CC(=O)C=C[C@]4(C)[C@@]3(F)[C@@H](O)C[C@@]21C [FLUTICASONE PROPIONATE] | > 30 | 23.2 | > 30 | > 30 | > 30 | > 30 | –
15 | Cc1cnc(C(=O)NCCc2ccc(S(=O)(=O)NC(=O)NC3CCCCC3)cc2)cn1 [GLIPIZIDE] | > 30 | – | 14 | > 30 | – | – | > 30
16 | CCC(=O)O[C@]1(C(=O)CCl)[C@@H](C)C[C@H]2[C@@H]3C[C@H](F)C4=CC(=O)C=C[C@]4(C)[C@@]3(F)[C@@H](O)C[C@@]21C [HALOBETASOL PROPIONATE] | > 30 | 19.7 | > 30 | > 30 | > 30 | > 30 | –
17 | CC(N)Cc1ccc(O)cc1 (stereo not drawn) [HYDROXYAMPHETAMINE] | > 30 | > 30 | > 30 | > 30 | > 30 | 9.66 | –
18 | Cc1cc(NC(=O)C2=C(O)c3ccccc3S(=O)(=O)N2C)no1 [ISOXICAM] | > 30 | > 30 | > 30 | > 30 | > 30 | > 30 | –
19 | COc1cc2c(cc1OC)CC(=O)N(CCCN(C)C[C@H]1Cc3cc(OC)c(OC)cc31)CC2 [IVABRADINE] | > 30 | > 30 | > 30 | > 30 | > 30 | > 30 | –
20 | CC(C)(C)NC[C@H](O)COc1cccc2c1CCCC2=O [LEVOBUNOLOL] | > 30 | > 30 | > 30 | > 30 | > 30 | > 30 | –
21 | Cc1c(N(C)CS(=O)(=O)O)c(=O)n(-c2ccccc2)n1C [METAMIZOLE] | > 30 | > 30 | > 30 | > 30 | > 30 | > 30 | –
22 | CN1C(=O)/C(=N\NC(N)=S)c2ccccc21 [METHISAZONE] | > 30 | 13.9 | > 30 | > 30 | > 30 | > 30 | –
23 | COC(=O)c1ccc(O)cc1 [METHYLPARABEN] | > 30 | > 30 | > 30 | > 30 | > 30 | > 30 | –
24 | O=[N+]([O-])c1ccc(O)c2ncccc12 [NITROXOLINE] | > 30 | – | – | > 30 | > 30 | > 30 | –
25 | CCCc1nc(C(C)(C)O)c(C(=O)O)n1Cc1ccc(-c2ccccc2-c2nnn[nH]2)cc1 [OLMESARTAN] | > 30 | > 30 | > 30 | > 30 | > 30 | > 30 | –
26 | NCC(CC(=O)O)c1ccccc1 (stereo not drawn) [PHENIBUT] | > 30 | > 30 | > 30 | > 30 | > 30 | > 30 | –
27 | CC[C@@H]([C@H](C)O)n1ncn(-c2ccc(N3CCN(c4ccc(OC[C@@H]5CO[C@@](Cn6cncn6)(c6ccc(F)cc6F)C5)cc4)CC3)cc2)c1=O [POSACONAZOLE] | > 30 | – | > 30 | > 30 | > 30 | > 30 | –
28 | Cc1ncc(COP(=O)(O)O)c(C=O)c1O [PYRIDOXAL PHOSPHATE ANHYDROUS] | > 30 | > 30 | > 30 | > 30 | > 30 | > 30 | –
29 | CCOC(=O)C1=C[C@]2(CC)CCCN3CCc4c(n1c1ccccc41)[C@@H]32 [VINPOCETINE] | – | – | – | – | – | – | > 30
30 | Cc1cc(C(C)(C)C)cc(C)c1CC1=NCCN1 [XYLOMETAZOLINE] | – | – | 0.0003 | – | – | – | > 30

Reference: ChEMBL document CHEMBL5291721, “A preclinical secondary pharmacology resource illuminates target-adverse drug reaction associations of marketed drugs” (Nat Commun, 2023)
